Results published in patent US9486507B2, “Pro-coagulant compounds and methods of use thereof” (priority 2011, dated 2016).
Values joined by “and” are separate entries in the source; they are usually repeats but may differ in a detail not shown here. Equal entries are not always repeated.

Legend:
[1] = target: α-thrombin (Homo sapiens, UniProt P00734); test: Fibrin generation assay (thrombin activity); format: biochemical; details: compound 5 1 uM; α-thrombin 0 or 0.1 IU/mL
Experimental: The generation of fibrin was determined by measuring the absorbance at OD405 with the Biotek Synergy 2 multi-detection microplate reader.

[2] = target: T1, FVIIa (Homo sapiens, UniProt P08709); test: FXa generation assay with human FVIIa; format: biochemical; details: absence of PL
T1 construct: The two-chain Factor VIIa is a polypeptide produced from FVII by hydrolysis of the Arg152-Ile153 peptide bond of FVII; purchased Haematologic Technologies
T1 sequence (P08709 61-212 limits assumed): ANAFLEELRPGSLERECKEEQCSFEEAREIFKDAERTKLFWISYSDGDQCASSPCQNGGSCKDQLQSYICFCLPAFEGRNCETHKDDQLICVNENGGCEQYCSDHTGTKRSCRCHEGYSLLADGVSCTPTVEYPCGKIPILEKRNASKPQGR
T1 sequence (P08709 213-466 limits assumed): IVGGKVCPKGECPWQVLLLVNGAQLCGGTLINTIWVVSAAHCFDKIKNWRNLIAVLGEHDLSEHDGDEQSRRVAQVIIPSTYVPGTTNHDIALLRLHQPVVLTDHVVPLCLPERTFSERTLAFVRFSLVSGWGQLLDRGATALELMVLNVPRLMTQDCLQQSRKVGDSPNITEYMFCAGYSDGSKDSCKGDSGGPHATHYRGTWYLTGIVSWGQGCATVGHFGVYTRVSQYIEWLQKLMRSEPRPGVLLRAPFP
Experimental: Similarly, in order to measure the catalytic activity of FVIIa, a FXa generation assay measuring the ability of the compounds of the present disclosure to enhance the catalytic activity of FVIIa was established. The difference between the two assays was that the final concentration of 10 nM hFIXa was replaced with 10 nM hFVIIa. The remaining reagents and assay procedures described above were unchanged.

[3] = target: T2, FIXa (Homo sapiens, UniProt P00740); test: Heparin accelerated FIXa-AT complex formation assay; format: biochemical; design: purchased Haematologic Technologies; details: with heparin, 0 min
[4] = target: T2, FIXa; test: FXa generation assay with human FIXa; format: biochemical; design: purchased Haematologic Technologies
Description: FXa generation was utilized to assess the capability of the compounds of the present disclosure to enhance the catalytic activities of FIXa and/or FVIIa.
To measure the catalytic activity of FIXa, FIXa was mixed with FX and phospholipids in the presence of calcium chloride. Under these conditions FIXa cleaves the zymogen FX into the active form FXa.
The generation of FXa is monitored by the change in absorbance of the reaction at 405 nm due to the presence of a cleavable FXa chromogenic substrate (S-2765; Z-D-Arg-Gly-Arg-pNA; cleavage of p-nitroaniline). […] The kit contains all the FXa generation components, however, FIXa and FX obtained from this kit are from a bovine origin and were replaced with purified human FIXa or human FVIIa and human FX (Haematologic Technologies).
The assay was also modified to enhance the screening throughput. Instead of the sequential addition, all the assay components were mixed and added simultaneously to the purified compound to be assayed. A 125 μl reaction mix of the assay components was prepared in the buffer supplied by the manufacturer (50 mM Tris 7.3, and 1% BSA). […] The reaction mix (125 ul) was then added to 25 ul of compound diluted in water in a Costar-3651 flat bottom 96-well plate. […] The absorbance was monitored over a period of 1 hour at 405 nm using a plate reader (Synergy 2, Biotek).
The 405 nm absorbance data were then analyzed to obtain the slope of the first derivative which reflects the rate of change in absorbance. The first derivative slope data for each compound concentration were plotted against the compound concentration and fitted to a four-parameter equation to obtain the EC50 and Vmax values for each compound tested.

[5] = target: T2, FIXa; test: Heparin accelerated FIXa-AT complex formation assay; format: biochemical; design: purchased Haematologic Technologies; details: for % FIXa-AT complex formation: with heparin
Experimental: Competition studies between the pro-coagulant peptides and heparin: compounds of the present disclosure were tested in a heparin competition assay in an effort to further map the peptide's binding site on FIXa. FIXa inactivation by antithrombin (AT) was assessed by gel electrophoresis in the presence of heparin and varying procoagulant peptide concentrations. The rate of FIXa-AT complex formation was quantified over a 15 minute time course. […] The samples were incubated at 37° C. in a water bath and 12.5 μL aliquots were removed at each time point (0.5, 2, 5, 10, 15 min) and immediately mixed with 12.5 μL SDS 2× non-reducing sample buffer. The samples were heated at 90° C. for 3 min and loaded onto a 4-20% BioRad gel (20 μL/lane). The gel was run at 300V for 25 min, and the bands were quantified using Quantity One software from BioRad.

[6] = test system: FIX-deficient human plasma; test: ROTEM in FIX-deficient human plasma; format: biochemical
Experimental: Compounds of the present disclosure were tested by rotational thromboelastometry to evaluate coagulation parameters such as clotting time (CT), α-angle, clot formation time (CFT), maximum clot firmness (MCF). Briefly, lyophilized and citrated FVIII deficient human plasma (Siemens) was reconstituted with 1 mL of distilled water, allowed to stand for 20 min at RT and mixed well before use. Alternatively, an aliquot of citrated (non-lyophilized) FVIII deficient human plasma (HRF, George King, Precision Biologics, or real-time donors) was thawed for 10 min in a 37° C. water bath and when needed centrifuged at 2800 g for 5 min at 25° C. FVIII deficient plasma was spiked with lyophilized platelets (Helena Laboratories, final concentration 0.5×10^8 cells/ml) and compounds, FVIII, or both compound and FVIII. Dilutions of compounds of the present disclosure and controls, such as FVIII, were prepared in PBS (—Ca, —Mg). Next, 300 μl of the spiked plasma was transferred to a ROTEM cup already containing 20 μl of StarTEM (concentrated calcium chloride solution) and 20 μl of lipidated TF (American Diagnostica, final concentration 10 fM) or Kaolin (Sigma-Aldrich, final concentration 0.4 μg/ml) and recording was initiated. The cups were maintained at 37° C. during the testing.

[7] = test system: canine FVIII-deficient plasma; test: ROTEM in canine FVIII-deficient plasma; format: biochemical; details: canine HemA plasma, lyophilized human platelets, 10 fM lipTF
[8] = test system: purified recombinant human coagulation factors; test: Thrombin generation assay using purified hemostatic components; format: biochemical
Description: Purified recombinant human coagulation factors V, XI, II, X, IX, VII, VIIa, recombinant tissue factor and antithrombin III (ATIII) were obtained from Haematologic Technologies (Essex Junction, Vt., USA). Lyophilized platelets were from Helena Laboratorires (Beaumont, Tex.); TFPI was from American Diagnostica.

[9] = test system: platelets; test: Platelet aggregation (aggregometer); format: cell-based
Description: ADP was used as a positive control for platelet aggregation.

[10] = test system: FVIII deficient human plasma; test: Thrombin generation assay (TGA) in FVIII-deficient plasma; format: biochemical; details: for Thrombin Above Baseline (nM): HRF FVIII-deficient plasma (1)
[11] = FIX-deficient plasma (containing platelets), 10 μM
[12] = FIX-deficient plasma, compound 5 2.5 μM + FIX-Fc 0.25 IU/mL
[13] = human HemB plasma, lyophilized platelets, 10 fM TF, 5 μM
[14] = human HemB plasma, lyophilized platelets, 10 fM TF, 10 μM
[15] = human HemB plasma, 5 μM, anti-FIX pab +
[16] = human HemB plasma, 5 μM, anti-FIX pab −
[17] = human HemB plasma, 10 μM, anti-FIX pab −

T2 sequence (P00740 47-191 limits assumed): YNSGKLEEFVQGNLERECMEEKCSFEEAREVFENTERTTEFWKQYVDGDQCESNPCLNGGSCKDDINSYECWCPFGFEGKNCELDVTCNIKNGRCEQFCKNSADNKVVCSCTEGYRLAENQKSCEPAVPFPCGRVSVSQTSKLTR
T2 sequence (P00740 227-461 limits assumed): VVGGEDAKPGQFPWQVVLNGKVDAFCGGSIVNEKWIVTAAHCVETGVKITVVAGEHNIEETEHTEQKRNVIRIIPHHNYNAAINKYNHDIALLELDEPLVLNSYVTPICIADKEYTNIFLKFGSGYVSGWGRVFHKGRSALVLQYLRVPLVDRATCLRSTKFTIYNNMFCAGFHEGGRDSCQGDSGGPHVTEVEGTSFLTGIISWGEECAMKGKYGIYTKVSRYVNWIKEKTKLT

rRAPGKLTCLASYCWLFWTGIA [Compound 5]
catalytic activity of thrombin (fibrin generation, OD405) [1]: did not substantially increase the catalytic activity of thrombin directly | increase of FVIIa activity, % of control [2]: about 10% | % FIXa-AT complex formation ([3]; Compound 5 0.1 μM): 0% | % FIXa-AT complex formation ([3]; Compound 5 1 μM): 0% | % FIXa-AT complex formation ([3]; Compound 5 10 μM): 0% | Vmax ([4]; FXa generation assay, 10 nM hFIXa, 100 nM hFX, class symbols): (+++) ((+++)>2) | increase of FIXa catalytic activity, % of control ([4]; absence of PL): about 80% | inactivation of FIXa by AT ([5]; absence of heparin): unaffected | heparin-catalyzed FIXa-AT complex formation ([5]; heparin 100 nM, compound 5 0.1, 1, 10 μM): inhibited the FIXa-AT complex formation in a concentration-dependent manner | % FIXa-AT complex formation ([5]; Compound 5 0.1 μM, 0.5 min): 57% | % FIXa-AT complex formation ([5]; Compound 5 0.1 μM, 2 min): 72% | % FIXa-AT complex formation ([5]; Compound 5 0.1 μM, 5 min): 82% | % FIXa-AT complex formation ([5]; Compound 5 0.1 μM, 10 min): 82% | % FIXa-AT complex formation ([5]; Compound 5 0.1 μM, 15 min): 83% | % FIXa-AT complex formation ([5]; Compound 5 1 μM, 0.5 min): 30% | % FIXa-AT complex formation ([5]; Compound 5 1 μM, 2 min): 45% | % FIXa-AT complex formation ([5]; Compound 5 1 μM, 5 min): 55% | % FIXa-AT complex formation ([5]; Compound 5 1 μM, 10 min): 70% | % FIXa-AT complex formation ([5]; Compound 5 1 μM, 15 min): 74% | % FIXa-AT complex formation ([5]; Compound 5 10 μM, 0.5 min): 18% | % FIXa-AT complex formation ([5]; Compound 5 10 μM, 2 min): 28% | % FIXa-AT complex formation ([5]; Compound 5 10 μM, 5 min): 41% | % FIXa-AT complex formation ([5]; Compound 5 10 μM, 10 min): 54% | % FIXa-AT complex formation ([5]; Compound 5 10 μM, 15 min): 62% | Clotting time, sec [6, 11]: 1,311 sec and 1,328 sec | α-angle, degrees [6, 11]: 15 degrees and 19 degrees | Clotting time [6, 12]: 876.5 s | α-angle [6, 12]: 39.5 degrees | Clotting time [6, 13]: 836 s and 810 s | α-angle, degrees [6, 13]: 24 degrees and 20 degrees | Clotting time [6, 14]: 804 s and 773 s | α-angle, degrees [6, 14]: 22 degrees and 21 degrees | Clotting time, sec [6, 15]: 1,660 sec and 1,661 sec | α-angle, degrees [6, 15]: 9 degrees | Clotting time, sec [6, 16]: 1,420 sec and 1,556 sec | α-angle, degrees [6, 16]: 11 degrees and 12 degrees | α-angle, degrees ([6]; human HemB plasma, 10 μM, anti-FIX pab +): 13 degrees and 10 degrees | Clotting time, sec [6, 17]: 1,182 sec and 1,194 sec | α-angle, degrees [6, 17]: 12; 12 degrees | Clotting time ([7]; 0.625 μM): 687 s and 539 s | α-angle, degrees ([7]; 0.625 μM): 12 degrees | Clotting time ([7]; 2.5 μM): 346 s and 356 s | α-angle, degrees ([7]; 2.5 μM): 15; 15 degrees | Clotting time ([7]; 5 μM): 295 s and 369 s | α-angle, degrees ([7]; 5 μM): 29 degrees and 28 degrees | Clotting time ([7]; 10 μM): 286 s and 294 s | α-angle, degrees ([7]; 10 μM): 58 degrees and 57 degrees | thrombin generation, FXIa dependence ([8]; compound 5 1 μM, 0, 50% or 100% FXIa (FIG. 8)): dependent on the FXIa concentration | thrombin generation, FIXa dependence ([8]; compound 5 1 μM, 1%, 10% or 100% (3.1 μg/mL) FIXa (FIG. 7)): dependent on the FIXa concentration | thrombin generation without FIX/FIXa ([8]; compound 5 1 μM, FVII, FVIIa, TF, FV, FX, FII, ATIII, TFPI, platelets): enhanced thrombin generation in the absence of FIX/FIXa | thrombin generation, dose dependence ([8]; compound 5 at 1 nM, 10 nM, 100 nM, 1 μM, 2 μM (FIG. 6)): enhances thrombin generation in a dose-dependent manner | thrombin generation ([8]; compounds 1 μM, FVIII 0.1 or 1 IU/mL (FIG. 5)): induce thrombin generation | effect on ADP-activated platelets ([9]; 30 μM): only a moderate effect | induction of platelet aggregation ([9]; compound 5 about 30 μM, compound 22 10 μM and 30 μM): did not induce platelet aggregation | effect on ADP-activated platelets ([9]; concentration of up to 10 μM): did not exhibit a significant effect | additive effect with FVIII on thrombin generation ([10]; 0.1 pM lipidated TF, low amounts of rFVIII (FIG. 2)): shows additive thrombin generation activity with FVIII | amount of thrombin generated, as rFVIII equivalent ([10]; 10 μM compound 5, 0.1 pM lipTF): about 0.2 IU/mL | amount of thrombin generated, compared with FVIII ([10]; 5 or 10 μM compound 5, 0.1 pM lipTF): > 0.1 U/mL | Thrombin Above Baseline (nM) ([10]; 2.5 μM): + (1-10 nM (1) or 1-29 nM (2) (+)) | Thrombin Above Baseline (nM) ([10]; 5 μM): + (1-10 nM (1) or 1-29 nM (2) (+)) | Thrombin Above Baseline (nM) ([10]; 10 μM): ++ (11-20 nM (1) or 30-59 nM (2) (++)) | Thrombin Above Baseline (nM) ([10]; 20 μM): ++ (11-20 nM (1) or 30-59 nM (2) (++)) | lag time ([10]; compound 5 at 10 μM and 5 μM, 0.1 pM lipTF (FIG. 3)): shorter lag time than 0.1 or 0.25 U/mL of FVIII
